Tests used:
[1] = biological target: T1, NEP (Rattus norvegicus, UniProt P07861); experiment: Met-enkephalinase activity of rat spinal cord slices, Met-enkephalin RIA; format: biochemical; conditions: 10 μM, fresh spinal cord tissue, 20 min at 25° C.
T1 construct: incubations of membrane and fresh tissue slice preparations from nervous tissues; from tissue; host or cells: dorsal spinal cord of male Wistar rats (fresh slices or 100 000 x g membrane fraction)
T1 sequence (P07861 1-750): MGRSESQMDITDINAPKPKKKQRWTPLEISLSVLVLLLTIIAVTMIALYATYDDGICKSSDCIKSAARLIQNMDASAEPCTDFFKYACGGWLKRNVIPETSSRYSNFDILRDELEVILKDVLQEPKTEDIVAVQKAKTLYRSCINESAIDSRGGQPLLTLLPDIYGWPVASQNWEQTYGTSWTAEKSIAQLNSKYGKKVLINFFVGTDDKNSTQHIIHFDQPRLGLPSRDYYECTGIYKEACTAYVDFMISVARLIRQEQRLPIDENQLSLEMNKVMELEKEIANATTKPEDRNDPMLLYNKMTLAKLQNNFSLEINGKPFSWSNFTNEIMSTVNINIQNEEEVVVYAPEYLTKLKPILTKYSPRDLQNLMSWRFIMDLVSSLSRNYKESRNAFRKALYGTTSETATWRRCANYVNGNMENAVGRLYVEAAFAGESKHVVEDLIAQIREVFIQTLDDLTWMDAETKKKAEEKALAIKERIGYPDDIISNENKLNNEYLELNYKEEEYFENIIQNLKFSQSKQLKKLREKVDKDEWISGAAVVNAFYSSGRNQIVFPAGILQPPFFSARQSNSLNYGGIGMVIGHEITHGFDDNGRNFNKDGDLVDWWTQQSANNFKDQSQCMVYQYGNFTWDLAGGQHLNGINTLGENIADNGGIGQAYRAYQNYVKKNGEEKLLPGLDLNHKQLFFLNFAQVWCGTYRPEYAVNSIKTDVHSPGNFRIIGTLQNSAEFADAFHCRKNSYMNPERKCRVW
Experimental: FIG. 2-A: […] The organs are rapidly removed, dissected on ice, freed of nerve fibers and of adipose tissues and then washed in cold oxygenated glucose- and bicarbonate-containing Krebs Ringer (KRBG) solution, whose composition is the following: 120 mM NaCl-5 mM KCl-1.2 mM KH2PO4-27.5 mM NaHCO3-2.6 mM CaCl2-0.67 mM MgSO4-5.9 mM glucose. The slices of tissues are prepared either manually with the aid of a scalpel (1-2 mm thick), or mechanically with the aid of a “Tissue Chopper” (1 mm thick). Slices are then dispersed into reaction tubes where they are subjected to three successive washes in ice-cold oxygenated KRBG. […] For the experiments of analysis of the NEP peptidase activity, an ex vivo model using incubations of membrane and fresh tissue slice preparations from nervous tissues that are known to be appropriate for exploring NEP peptidase activity: i.e. the dorsal zone of rat spinal cord, was first developed. The metabolism rate of the NEP-sensitive peptides was measured using the both NEP substrates involved in the signaling of the nociceptive response: the neuropeptides Met-enkephalin and Substance P. […] (NEN, 12.5-25 nM) were used. The objective was to measure the NEP-specific endoproteolysis of these substrates. […] Furthermore, for studying the functional role of […] NO: 2), the reaction was carried out in the presence of the SMR1-peptide alone or combined with specific inhibitors of membrane peptidases which could inactivate the […] […] Herein, a competitive RIA system has been used: the quantity of radioactive antigen bound to the antibody decreases in a manner inversely proportional to the quantity of antigen contained in the standard solution or in the sample. […] The activity of enkephalinase NEP is monitored by quantification of the disappearance of the initial Met-enkephalin substrate. […] The radiolabeled antigen is iodinated Met-enkephalin (^125I-Met-Enk enkephalin) with a specific radioactivity estimated at 3000 Ci/mmol. […] After centrifugation, the bound radioactivity of the precipitate is quantified using a gamma-spectrometer.

[2] = biological target: T1, NEP; experiment: Met-enkephalin hydrolysis by rat spinal cord slices and membrane preparations, RP-HPLC analysis; format: biochemical; conditions: 10 μM alone, spinal cord slices, 20 min at 25° C., 10 μM Met-enkephalin
Experimental: FIG. 2-B: […] Retention time) recovered after 20 min. incubation at 25° C. with 1 mg fresh tissue slices in a 1 ml final volume of KRBG buffer. The organs are rapidly removed, dissected on ice, freed of nerve fibers and of adipose tissues and then washed in cold oxygenated glucose- and bicarbonate-containing Krebs Ringer (KRBG) solution, whose composition is the following: 120 mM NaCl-5 mM KCl-1.2 mM KH2PO4-27.5 mM NaHCO3-2.6 mM CaCl2-0.67 mM MgSO4-5.9 mM glucose. The slices of tissues are prepared either manually with the aid of a scalpel (1-2 mm thick), or mechanically with the aid of a “Tissue Chopper” (1 mm thick). Slices are then dispersed into reaction tubes where they are subjected to three successive washes in ice-cold oxygenated KRBG. […] The organs dissected out and washed in ice-cold KRBG are homogenized at 4° C. in 10 volumes (vol./wt.) of 50 mM Tris/HCl buffered at pH 7.2, using a Teflon-glass homogenizer (3×5 sec.). […] The metabolism rate of the NEP-sensitive peptides was measured using the both NEP substrates involved in the signaling of the nociceptive response: the neuropeptides Met-enkephalin and Substance P. […] Their identification and relative quantification (peak height) are checked by continuously monitoring the UV absorbance at 254 nm of column outflow. […]

[3] = tested on: male rats; experiment: Pin pain test; format: in vivo, rat
Experimental: The 3-min test session was performed 5 min after intravenous. rat tail vein administration of sialorphin or its vehicle. Naloxone (0.3 mg per kg body weight) was injected subcutaneously 15 min before sialorphin administration. Time in centre field sector (FIG. 6-C) (central square of the open-field without pin) and activity (FIGS. 6-A and 6-B) in peripheral squares (overlayed with pins) during the 3-min test session. Each value represents the mean±sem of 8 animals per group. […] Control group corresponded to pain response in vehicle-treated rats. 50 μg/kg sialorphin, 100 μg/kg sialorphin, 100 μg/kg sialorphin plus naloxone 0.3 mg/kg.
To extend the insight into the in vivo possible antinociceptive property of sialorphin through enkephalin-degrading enzyme inhibition, its effects were assessed in rat model of pain, i.e. the pin pain test, (Hebert et al. (1999) Physiology & Behavior 67, 99-105) in which the various behavioural parameters of pain responses were recorded with a 3-min cutoff time.
The in vivo activity of sialorphin was tested on the pin pain assay using male rats (350-400 g, Charles Rivers). The experimental device consists in an open-field (45×45×40 cm) which is divided into nine equal squares (150×150 mm), eight of them are peripheral and one is central. The peripheral squares are overlayed with stainless steel pins (2/cm2, length 8 mm and diameter 0.6 mm). The test consisted in placing the rat in the central square of the open-field and recording its different behaviours (cut-off time, 3 min). Two days before the pain test, the rats were familiarised with the experimental device without pins for 20 min, so as to reduce the stress linked to the spatial neophobia. All statistical analyses were carried out using the Statview 5 statistical package.

[4] = naloxone 0.3 mg per kg subcutaneous, prior to sialorphin

protection of Met-enkephalin from degradation [1] | inhibition of Met-enkephalinase activity (Met-enkephalin degradation) [2] | SMILES | reversal of the sialorphin-effect on behavioural parameters of noxious response [3, 4] | reversal of the sialorphin-effect on time in central area [3, 4] | reversal of the sialorphin-effect on vocalisation parameter [3, 4] | time in the central area of the open-field ([3]; sialorphin plus naloxone 0.3 mg/kg s.c. 15 min before sialorphin)
100% |  | O=C(O)CNC(=O)C(CS)Cc1ccccc1 (stereo not shown) [Thiorphan] |  |  |  | 
96% | complete inhibition | CC(C)C[C@H](NP(=O)(O)O[C@@H]1O[C@@H](C)[C@H](O)[C@@H](O)[C@H]1O)C(=O)N[C@@H](Cc1c[nH]c2ccccc12)C(=O)O [Phosphoramidon, reference compound] |  |  |  | 
 |  | C=CCN1CC[C@]23c4c5ccc(O)c4O[C@H]2C(=O)CC[C@@]3(O)[C@H]1C5 [naloxone, reference compound] | 42-63% | 56% | 20% | 112.38 ± 17.44 s

From patent US7625713B2, “Process for identifying a ligand that binds to the NEP binding site for the SMR1 pentapeptide” (Institut Pasteur, priority 2000, dated 2009)
